# Test results as given in publication PMC9101642 (Molecules, 2022).
# Like-named read-outs stand apart in the source and are kept apart here. Marks after values point to notes of the source that are not given here.
# Key:
# ERβ = ERβ (Homo sapiens, UniProt Q92731); experiment: Fluorescence polarization competition assay: antagonistic potency and relative binding affinity; conditions: log of % relative binding affinity, estradiol = 100%
# MCF-7 cell lines = experiment: MTT antiproliferative assay; format: cell-based, human; conditions: read-out: MCF-7 (IC50 nM)
# MDA-MB-231 cell lines = experiment: MTT antiproliferative assay; format: cell-based, human; conditions: read-out: MDA-MB-231 (IC50 nM)
# [1] = system: Ishikawa endometrial adenocarcinoma cells; experiment: Antiproliferative assay; format: cell-based; conditions: Homo sapiens, growth inhibition
# [2] = system: progesterone receptor (PR); experiment: ERα functional antagonism cell assay (PR as biomarker) in MCF-7; format: cell-based; conditions: Homo sapiens, MCF7; progesterone receptor as biomarker for ERα antagonism in MCF-7
# MCF-7 cells = experiment: Cell cycle distribution by flow cytometry; format: cell-based, human; conditions: 24 h
# [3] = system: MNU-induced breast cancer; experiment: In vivo anticancer screening, MNU-induced mammary tumorigenesis; parameters: species or system female Wistar rats
# [4] = Plasma protein binding determination; format: in vitro ADME, rat; conditions: rat, plasma
# Method: Rats were housed at 3 per cage and
# The breast cancer was induced after the MNU (Sigma Aldrich CAS No. 684-93-5) administration. An aqueous solution at a concentration of 10 mg/ml was made by wetting the NMU powder with 3% acetic acid and then dissolving it in 0.9% NaCl solution; a fresh solution was prepared for each injection. Rats were given intraperitoneal (i.p.) 50 mg/kg of MNU on the 50th day of age. Animals were divided into different groups with six animals in each group. Group I (intact control) received 0.9% NaCl solution.
# Groups II-IV and V-VII were introduced with MNU. Two weeks after MNU treatment, animals were treated orally with synthesized compounds and control substances (5 and 50 mg/kg, for groups II-IV and V-VII, respectively) by gavage once per day for six weeks. Animals in the intact control group and untreated MNU group were given vehicle (Tween 80) according to the experimental protocol. […]
# Upon finishing the treatment with synthesized compounds, animals were sacrificed, and plasma, serum, and liver samples were collected. […]
# Rat plasma containing either 5 or 50 mg/kg bwt of the tested compounds was incubated at 37°C upper reservoir of the washed Centri-free YM-30 ultrafiltration units (Millipore, Bedford, MA) and then centrifuged for 20 min at 2,000 g. Aliquots of the ultrafiltrates and unfiltered incubation mixtures were analyzed for the total protein concentration by the bicinchoninic acid assay for protein concentration (BCA assay; Pierce, Rockford, IL).
# [5] = Serum biochemical markers after treatment of MNU-induced rats; format: in vivo, Wistar rats; conditions: for ALP (A/L) / ALT (A/L) / AST (U/L) / γ-GT (U/L): serum; for TBC: total bilirubin content
# How it was run: (§1)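 Mammary tumours induced in rats by MNU 50 mg/kg i.p. at day 50; after two weeks, compounds given orally at 5 or 50 mg/kg once daily for six weeks. Serum AST, ALT (340 nm), ALP (405 nm) and bilirubin measured; liver homogenate GSH, CAT, MDA by colorimetry; plasma binding by ultrafiltration at 37°C with BCA protein read-out.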
# [6] = Liver oxidative stress markers after treatment of MNU-induced rats; format: in vivo, Wistar rats; conditions: rat, in vivo
# How it was run: as §1
# [7] = system: MNU-induced breast cancer tissue; experiment: Histopathology of breast sections; format: in vivo, Wistar rats
# How it was run: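 Rats with MNU-induced breast cancer were given selected leads at two concentrations. Breast tissue was examined histopathologically for lobuloalveolar units and epithelial changes, with slides photographed at 200x.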
# [8] = both, Wistar, rat, in vivo, po
# [9] = rat, in vivo
# physchem = conditions: pH 7.4
# [10] = dose 50 mg/kg (compounds per os after MNU; MNU alone i.p.)
# Sequence of ERβ (Q92731 whole entry): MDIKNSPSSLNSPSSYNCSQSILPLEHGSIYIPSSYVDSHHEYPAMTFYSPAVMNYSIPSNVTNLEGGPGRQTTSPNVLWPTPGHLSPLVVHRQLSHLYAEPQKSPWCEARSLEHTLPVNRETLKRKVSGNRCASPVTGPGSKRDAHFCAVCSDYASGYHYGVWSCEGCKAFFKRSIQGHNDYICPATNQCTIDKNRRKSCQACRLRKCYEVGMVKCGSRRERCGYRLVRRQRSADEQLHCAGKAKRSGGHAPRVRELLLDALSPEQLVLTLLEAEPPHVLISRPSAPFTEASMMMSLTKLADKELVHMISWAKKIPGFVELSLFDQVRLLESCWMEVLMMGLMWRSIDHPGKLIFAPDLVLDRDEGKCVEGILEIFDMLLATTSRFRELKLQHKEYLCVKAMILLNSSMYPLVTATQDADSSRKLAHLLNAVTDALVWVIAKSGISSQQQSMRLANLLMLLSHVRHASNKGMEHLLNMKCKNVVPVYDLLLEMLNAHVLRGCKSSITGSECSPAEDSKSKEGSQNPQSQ
smiles,measurement,setting,value
"O=C(c1ccc(OCCN2CCCCC2)cc1)c1c(-c2ccc(O)cc2)sc2cc(O)ccc12 [Ral., Raloxifene, reference compound]",logRBA ERβ,ERβ,1.42 ^†
same,IC50,MCF-7 cell lines,0.9 ± 0.19 nM
same,IC50,"MDA-MB-231 cell lines; growth inhibition, 48 h",93.41 ± 0.48 nM
same,IC50,MDA-MB-231 cell lines; references in Table S17,93.12 ± 0.24 nM
same,IC50,[1],0.97 ± 0.35 nM
same,IC50,[2],> 100 nM
same,Cell Cycle (%) G0/G1,MCF-7 cells; 0.1 nM,"59.14 ± 0.54 *^,†,‡ %"
same,Cell Cycle (%) G2/M,MCF-7 cells; 0.1 nM,"25.03 ± 0.35 *^,†,‡ %"
same,Cell Cycle (%) S,MCF-7 cells; 0.1 nM,"15.83 ± 0.53 *^,†,‡ %"
same,Cell Cycle (%) G0/G1,MCF-7 cells; 1 nM,"66.52 ± 0.56 *^,†,‡ %"
same,Cell Cycle (%) G2/M,MCF-7 cells; 1 nM,"17.11 ± 0.46 *^,†,‡ %"
same,Cell Cycle (%) S,MCF-7 cells; 1 nM,"16.37 ± 0.46 *^,†,‡ %"
same,Tumor Burden (week),[3]; dose 5 mg/kg per os after MNU,"3.11 ± 0.47 *^,†,‡ week"
same,Tumor Latency (week),[3]; dose 5 mg/kg per os after MNU,8 * week
same,Tumor Volume (mm^3),[3]; dose 5 mg/kg per os after MNU,"1.67 ± 0.31 *^,†,‡ mm^3"
same,Tumor Burden (week),[3]; [10],"2.91 ± 0.22 *^,†,§ week"
same,Tumor Latency (week),[3]; [10],"13 *^,† week"
same,Tumor Volume (mm^3),[3]; [10],"1.41 ± 0.54 *^,†§ mm^3"
same,fraction unbound at 5 mg/kg bwt,[4],0.0185
same,fraction unbound at 50 mg/kg bwt,[4],0.019
same,ALP (A/L),[5]; dose 5 mg/kg,99.54±0.32 A/L
same,ALT (A/L),[5]; dose 5 mg/kg,50.14±0.35 A/L
same,AST (U/L),[5]; dose 5 mg/kg,53.57±0.43 U/L
same,γ-GT (U/L),[5]; dose 5 mg/kg,11.43 U/L
same,ALP (A/L),[5]; dose 50 mg/kg,106.43±0.54 A/L
same,ALT (A/L),[5]; dose 50 mg/kg,52.46±0.42 A/L
same,AST (U/L),[5]; dose 50 mg/kg,58.41±0.32 U/L
same,γ-GT (U/L),[5]; dose 50 mg/kg,12.35±0.31 U/L
same,TBC,[5]; dose 5 mg/kg,18.53
same,TBC,[5]; dose 50 mg/kg,22.46
same,CAT,[6]; 5 mg/kg,10.73±0.32
same,GSH,[6]; 5 mg/kg,6.65 mg/g
same,SOD (U/mg),[6]; 5 mg/kg,6.89±0.56 U/mg
same,TBARS,[6]; 5 mg/kg,2.31 ± 0.56 nmol/mg
same,TP,[6]; 5 mg/kg,42.67 g/L
same,CAT,[6]; 50 mg/kg,14.43±0.56
same,GSH,[6]; 50 mg/kg,5.54 ± 0.36 mg/g
same,SOD (U/mg),[6]; 50 mg/kg,8.46±0.23 U/mg
same,TBARS,[6]; 50 mg/kg,2.63 ± 0.21 nmol/mg
same,TP,[6]; 50 mg/kg,44.43 g/L
same,breast section histopathology,[7]; 5 mg/kg of bwt,differentiated extralobular ducts (ED)
same,breast section histopathology,[7]; 50 mg/kg of bwt,differentiated extralobular ducts (ED)
same,BIO,[8]; 5 mg/kg,93 ^‡
same,BIO,[8]; 50 mg/kg,96
same,"WL after MFD (day 1, mg)",[9],310.54 ± 0.45 mg
same,"WL after MFD (day 5, mg)",[9],300.54 ± 0.48 mg
same,logD at 30 min,physchem,2.39
